Experimental data: US7932022B2, “Dual-labeled molecular constructs for detection of biochemical reactions” (BioArray Solutions, Ltd., priority 2002, dated 2011)
Like-named read-outs stand apart in the source and are kept apart here. Where no end group is shown, it is not given here. [ ]: non-standard residue; d: D form. The star is where a group is joined. Biotin = O=C1N[C@H]2[C@H](CS[C@H]2CCCCC(=O)*)N1; pY = N[C@@H](Cc1ccc(OP(=O)(O)O)cc1)C(=O)O

Experiments:
[1] = test system: monoclonal antibodies specific for the phosphorylation modification; conditions: tyramide detection
Description: […]

[2] = test system: phosphorylated peptide-specific monoclonal mouse IgG antibodies; conditions: three-antibody detection
Description: After coupling, the particles were washed by using PBST. Then, all of the peptide-functionalized beads were combined into a test tube for assembly of microparticle array according to known prior art methods, such as LEAPS, and direct disposition assembly method previously described in Provisional Application Ser. No. 60/343,621, filed Dec. […] The assembled microparticle array is blocked by using 1% BSA in PBST. For immunodetection of phosphorylated peptides on the array, the chip is incubated with monoclonal antibodies specific for the phosphorylation modification. The incubation is carried out in a humid chamber for binding of the antibodies to the phosphorylated peptides. The unbound antibodies are washed away by using PBST. For the purpose of signal amplification, the chip is incubated with secondary antibodies specific for the primary monoclonal antibodies bound on the arrays. The signal may be further amplified by incubation of the chips with fluorescent-labeled antibodies specific for the secondary antibodies. After washing with PBST, the array is examined by using a fluorescent microscope according to known prior art methods, such as the READ assays.
The peptide-functionalized microparticles are assembled into a particle array. The chip was incubated with phosphorylated peptide-specific monoclonal mouse IgG antibodies followed by incubation with mouse IgG-specific secondary antibodies, and then Cy5-labeled third antibodies for detection using a fluorescent microscope. Fluorescence was detected by Cy5 signals. […] The error bars in FIG. 22 represent standard deviation of the respective mean intensities.

[3] = test system: phosphorylated peptide-specific monoclonal mouse IgG antibodies; conditions: three-antibody detection, six bead types

Substance | FITC signal intensity at 1000 ms integration [1] | Cy5 signal intensity at 1000 ms integration [2] | Cy5 signal intensity at 1000 ms integration [3]
Biotin-CEGPWLEEEEEA[pY]GWMDFK-Biotin [Peptide-P-2] | 15,000 units | 15,500 units | approximately 14,000 units
Biotin-CKVEKIGEGT[pY]GVVYK [Peptide-P-1] | – | – | approximately 14,000 units
Biotin-CRRLIEDAE[pY]AARGK [Peptide-P-3] | – | – | approximately 14,000 units
Biotin-KVEKIGEGTYGVVYK [Ty-1] | approximately 700 units | approximately 1400 units | approximately 1000 units
Biotin-KVEKIGEGT[pY]GVVYK [Ty-P-1] | 11,000 units | 15,000 units | approximately 14,000 units
